Values after ≈ are worked out from the molar mass of the structure shown.
Legend:
Assay type in all cases: functional
[1] = test system: Escherichia coli; assay: Antibacterial activity against Escherichia coli 1074 by NCCLS M27A method
[2] = test system: Candida albicans; assay: Antifungal activity against Candida albicans by NCCLS M27A method
[3] = test system: Streptococcus pneumoniae; assay: Antibacterial activity against Streptococcus pneumoniae by NCCLS M27A method
[4] = test system: Neisseria gonorrhoeae; assay: Antibacterial activity against Neisseria gonorrhoeae by NCCLS M27A method
[5] = test system: Aspergillus fumigatus; assay: Antifungal activity against Aspergillus fumigatus by NCCLS M27A method
[6] = test system: Staphylococcus aureus; assay: Antibacterial activity against Staphylococcus aureus 2999 by NCCLS M27A method
[7] = test system: Aspergillus niger; assay: Antifungal activity against Aspergillus niger by NCCLS M27A method
[8] = test system: Enterococcus faecalis; assay: Antibacterial activity against Streptococcus faecalis 1362/3 by NCCLS M27A method
[9] = test system: Haemophilus influenzae; assay: Antibacterial activity against Haemophilus influenzae by NCCLS M27A method
[10] = test system: Escherichia coli; assay: Antibacterial activity against Escherichia coli 1074
[11] = test system: Streptococcus pneumoniae; assay: Antibacterial activity against Streptococcus pneumoniae
[12] = test system: Staphylococcus aureus; assay: Antibacterial activity against Staphylococcus aureus 2999
[13] = test system: Neisseria gonorrhoeae; assay: Antibacterial activity against Neisseria gonorrhoeae
[14] = test system: Enterococcus faecalis; assay: Antibacterial activity against Streptococcus faecalis 1362/3
[15] = test system: Haemophilus influenzae; assay: Antibacterial activity against Haemophilus influenzae

MIC [10] [µg/mL]	MIC [11] [µg/mL]	MIC [12] [µg/mL]	MIC [13] [µg/mL]	MIC [14] [µg/mL]	MIC [15] [µg/mL]	Structure (SMILES)	MIC [1] [µg/mL]	MIC [2] [µg/mL]	MIC [3] [µg/mL]	MIC [4] [µg/mL]	MIC [5] [µg/mL]	MIC [6] [µg/mL]	MIC [7] [µg/mL]	MIC [8] [µg/mL]	MIC [9] [µg/mL]
–	–	–	–	–	–	CCC1/C=C/[C@H](O)[C@H](C)OC(=O)/C(C)=C\CC(=O)NC2=CC(=O)c3c(cc(C)c(O)c3C(=O)CC1)C2=O (some centres undefined) [HYGROCIN A]	128 (≈ 251 µM)	128 (≈ 251 µM)	16 (≈ 31.4 µM)	64 (≈ 126 µM)	16 (≈ 31.4 µM)	128 (≈ 251 µM)	32 (≈ 62.8 µM)	128 (≈ 251 µM)	128 (≈ 251 µM)
–	–	–	–	–	–	CCC1/C=C/[C@H](O)[C@H](C)OC(=O)[C@@]2(C)C=CC(=O)NC3=C2C(=O)c2c(cc(C)c(O)c2C(=O)CC1)C3=O (some centres undefined) [HYGROCIN B]	128 (≈ 252 µM)	128 (≈ 252 µM)	128 (≈ 252 µM)	128 (≈ 252 µM)	32 (≈ 63 µM)	128 (≈ 252 µM)	64 (≈ 126 µM)	128 (≈ 252 µM)	128 (≈ 252 µM)
128 (≈ 184 µM)	0.1 (≈ 0.144 µM)	0.01 (≈ 0.0144 µM)	0.1 (≈ 0.144 µM)	16 (≈ 23 µM)	0.01 (≈ 0.0144 µM)	CO[C@H]1/C=C/O[C@@]2(C)Oc3c(C)c(O)c4c(c3C2=O)C(=O)C=C(NC(=O)/C(C)=C\C=C\[C@H](C)[C@H](O)[C@@H](C)[C@@H](O)[C@@H](C)[C@H](OC(C)=O)[C@@H]1C)C4=O [RIFAMYCIN S]	–	–	–	–	–	–	–	–	–
